Assays:
NASH = details: EPA-E of high purity, 2700 mg/day for 12 months; cited from earlier work
[1] = system: diabetic mice (db/db) loaded with a methionine-choline-deficient diet; test: Efficacy on methionine-choline-deficient diet diabetic mice; assay type: in vivo, mouse; details: MCD diet db/db mice, two weeks, oral once a day; EPA-E 1000 mg/kg or compound 1 1 mg/kg; compared with the control group
Method: Pharmacological actions of EPA-E and/or compound 1 on hepatic disorders and fibrosis are confirmed by using diabetic mice loaded with a methionine-choline-deficient diet (hereafter referred to as “MCD diet”), which are known for their development of NASH-like hepatic lesions. Seven-week-old male db/db mice (Charles River Japan, Inc.) are fed at 23° C. on a 12:12 light/dark cycle, whereupon they are permitted to take either an ordinary diet (F-1; Funabashi Farm Co., Ltd.) or a MCD diet (Dyets, Inc.) freely for two weeks. The mice are divided into five groups (each comprising 20 animals), namely, normal group (ordinary diet-loaded), control group (MCD diet-loaded), EPA-E group (MCD diet-loaded, plus EPA-E-administered), compound 1 group (MCD diet-loaded, plus compound 1-administered), and combined application group (MCD diet-loaded, plus EPA-E-administered, plus compound 1-administered). During the feeding, 1000 mg/kg of EPA-E is administered to the EPA-E group, 1 mg/kg of compound 1 to the compound 1 group, as well as 1000 mg/kg of EPA-E and 1 mg/kg of compound 1 are administered to the combined application group, with each administration being orally carried out once a day by suspending the relevant drug or drugs in a 5% aqueous solution of gum arabic. To the normal group and the control group, a 5% aqueous solution of gum arabic is orally administered once a day. […]

[2] = system: high fat and high sucrose diet taking SD rats; test: Efficacy on high fat and high sucrose diet taking rats; assay type: in vivo, rat; details: HF diet SD rats, four weeks, oral once a day; EPA-E 1000 mg/kg or compound 2 1 mg/kg; compared with the control group
Method: Four-week-old male SD rats are fed at 23° C. on a 12:12 light/dark cycle, whereupon they are permitted to take either an ordinary diet (F-1; Funabashi Farm Co., Ltd.) or a high fat and high sucrose diet (TD88137 from Harlan […]; hereafter referred to as “HF diet”) freely for four weeks. The rats are divided into five groups (each comprising 10 animals), namely, normal group (ordinary diet-loaded), control group (HF diet-loaded), EPA-E group (HF diet-loaded, plus EPA-E-administered), compound 2 group (HF diet-loaded, plus compound 2-administered), and combined application group (HF diet-loaded, plus EPA-E-administered, plus compound 2-administered). During the feeding, 1000 mg/kg of EPA-E is administered to the EPA-E group, 1 mg/kg of compound 2 to the compound 2 group, as well as 1000 mg/kg of EPA-E and 1 mg/kg of compound 2 are administered to the combined application group, with each administration being orally carried out once a day by suspending the relevant drug or drugs in a 5% aqueous solution of gum arabic. To the normal group and the control group, a 5% aqueous solution of gum arabic is orally administered once a day. After the feeding for four weeks, blood samples are collected to measure the neutrophil count and conduct biochemical assays of the plasma.

Row | Compound | NASH (AST or ALT, inflammatory cytokines or oxidative stress markers, hepatobiopsy) (NASH) | increases of the plasma AST and ALT levels [1] | increases of the type IV collagen, hyaluronic acid and TIMP-1 levels [1] | increases of the neutrophil count, TNFα, IL-6, high sensitivity CRP, ferritin, thioredoxin and type IV collagen [2] | increases of the plasma AST and ALT levels [2]
1 | CC/C=C\C/C=C\C/C=C\C/C=C\C/C=C\CCCC(=O)OCC [EPA-E, EPA ethyl] | amelioration of NASH | suppressed | suppressed | suppressed | suppressed
2 | CCn1ncc2c(-c3cncc(Br)c3)c(C#N)c(C)nc21 [compound 2, 4-(5-bromo-3-pyridyl)-1-ethyl-6-methyl-1H-pyrazolo[3,4-b]pyridine-5-carbonitrile] | – | – | – | suppressed | suppressed

Reference: patent US20110105510A1, “PROPHYLACTIC/AMELIORATING OR THERAPEUTIC AGENT FOR NON-ALCOHOLIC STEATOHEPATITIS” (priority 2008, published 2011)
